Laboratory results reported in US10214710B2, “Intercalated bleach compositions, related methods of manufacture and use” (The Clorox Company, priority 2013, dated 2019).

What was measured:
[1] = Humidity stability, storage at 80° F. and 80% relative humidity; format: physicochemical
Procedure: In addition to the stability testing described above, the magnesium intercalated bleach compositions were tested for their resistance to humidity (i.e., their ability to resist degradation upon exposure to humidity). The results were compared with the humidity stability of alternative solid hypochlorite releasing products, specifically dibasic magnesium hypochlorite and a mixture of calcium hypochlorite and magnesium oxide. […] As shown, the initial weight percent hypochlorite was measured. Some samples were stored open, while others were stored closed, and the weight percentage of remaining hypochlorite was measured after the 2 month storage.
Two MIB samples were tested.

[2] = pH buffering and hypochlorite release on HCl addition; format: physicochemical
Procedure: The buffering characteristics of the MIB compositions, as well as the ability to accelerate release of hypochlorite through addition of an acid were tested. It is believed that the MgO and/or Mg(OH)2 component present within the intercalated bleach compound acts to buffer the pH to a preferred region (e.g., about 8 to about 11.5) for enhanced hypochlorite stability. FIG. 4A plots the pH profile over time as hydrochloric acid (HCl) is added to the MIB aqueous solution at periodic intervals.
FIG. 4B plots the concentration of hypochlorite in solution (ppm of OCl) as a function of how many millimoles of HCl are added.
FIGS. 5A-5B plot similar data as described above with respect to FIGS. 4A-4B, but for a dibasic magnesium hypochlorite composition including 34% available chlorine by weight. […] As such, the dibasic magnesium hypochlorite is not capable of maintaining a relatively high pH for the solution, as are the MIB compositions. Such improved buffering capacity (i.e., the ability to maintain a higher pH for longer) greatly improves the stability of the bleach composition.

[3] = Differential scanning calorimetry (DSC) thermodynamic stability and adjuvant compatibility; format: physicochemical
[4] = Relative ratings of solid hypochlorite bleach products; conditions: relative rating

Compound	Moisture Tolerance [4]	Solution Clarity [4]	Bleach Stability [4]	other results
Mg(OCl)2.2Mg(OH)2 [dibasic magnesium hypochlorite]				hypochlorite remaining, open sample ([1]; 2 months, 80° F., 80% relative humidity, stored open): ~0 % by weight; initial hypochlorite concentration ([1]; before the 2 month storage, FIG. 3A): about 25 % by weight; hypochlorite (bleach) release as a function of HCl added ([2]; FIG. 4B / 5B): not significantly aided by acid addition; pH (buffering) recovery after HCl addition ([2]; HCl added at periodic intervals, FIG. 4A / 5A): significantly slower and less complete
O=c1nc([O-])n(Cl)c(=O)n1Cl.[Na+] [sodium dichloroisocyanurate]				exothermic decomposition reactions ([3]; temperature range of 10° C. to 200° C., FIG. 7C): no exothermic decomposition reactions
Trichloromelamine	3	1		
[Ca+2].[O-]Cl.[O-]Cl [Calcium hypochlorite, calcium hypochlorite]	3	3	3	energy given off in exothermic decomposition ([3]; FIG. 7B): 401 J/g; decomposition reaction temperature ([3]; endothermic for MIB, exothermic for calcium hypochlorite): about 212 °C
sodium hypochlorite phosphate adduct [Na(OCl)2 phosphate adduct]	3	5	1	
[Li+].[O-]Cl [Li(OCl)2, lithium hypochlorite]	3	5	1	
O=C1CN(Cl)C(=O)N1Cl [Dichlorohydantoin]	1	1	5	
